Assay: recombinant UMI read abundance after kanamycin selection (control-corrected) (log10(CPM+1)); higher = more efficient recombination; extreme values may be limits of the assay; sequences stand for … in AGTGCAGAGAAAATCGGCCAGTTTTCTCTGCCTGCAGTCCGCATGCCGTGGGACCCCTTGGGTTCTAACCTGTTGCCTAGATTTATGCAGCGGACTGCCTTTCTCCCAAAGTGATAAACCGG…AGGTTGGTTTCACT; site = the 11-nt donor
Summary of the method: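 The measure is log10(CPM+1) for recombinant UMIs. These were PCR-amplified across the donor–target junction and sequenced after Escherichia coli carrying a donor and donor-binding-loop pair library and a target plasmid with T7-inducible IS621 bridge recombinase was plated on IPTG (0.07 mM) plus kanamycin or unselected. CPM were averaged over two replicates and scaled by control-derived factors.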
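Note: IS621 bridge recombinase in Escherichia coli cells against a fixed T5 target plasmid.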

| Sequence | recombinant UMI read abundance (log10) |
| --- | --- |
| ATCTATACATGGACCGGTTTTCCCGGTAATCCGTATTTGAC (site ATGTATACTGT) | 1.03 |
| ATCTATACATGGACCGGTTTTCCCGGTAATCCGTATTTGAC (site ATTTATACTGT) | 0 |
| ATCTATACATGGACCGGTTTTCCCGGTAATCCGTATTTGAC (site CTCTATACTGT) | 2.17 |
| ATCTATACATGGACCGGTTTTCCCGGTAATCCGTATTTGAC (site GTCTATACTGT) | 0.424 |
| ATCTATACATGGACCGGTTTTCCCGGTAATCCGTATTTGAC (site TTCTATACTGT) | 1.19 |
| ATCTATGCATGGACCGGTTTTCCCGGTAATCCGTATTTGAC (site ATCTATACTGT) | 2.11 |
| ATCTATGCATGGACCGGTTTTCCCGGTAATCCGTATTTGAC (site ATCTATCCTGT) | 0 |
| ATCTATGCATGGACCGGTTTTCCCGGTAATCCGTATTTGAC (site ATCTATGCTGT) | 2.57 |
| ATCTATGCATGGACCGGTTTTCCCGGTAATCCGTATTTGAC (site ATCTATTCTGT) | 0 |
| ATCTCAGCATGGACCGGTTTTCCCGGTAATCCGTATTTGGG (site AACTCAGCTCC) | 0.0145 |
| ATCTCAGCATGGACCGGTTTTCCCGGTAATCCGTATTTGGG (site ACCTCAGCTCC) | 0.01 |
| ATCTCAGCATGGACCGGTTTTCCCGGTAATCCGTATTTGGG (site AGCTCAGCTCC) | 0.0129 |
| ATCTCAGCATGGACCGGTTTTCCCGGTAATCCGTATTTGGG (site ATCTCAGCTCC) | 0.323 |
| ATCTCTACATGGACCGGTTTTCCCGGTAATCCGTATTTGAC (site ATCTATACTGT) | 0.264 |
| ATCTCTACATGGACCGGTTTTCCCGGTAATCCGTATTTGAC (site ATCTCTACTGT) | 2.29 |
| ATCTCTACATGGACCGGTTTTCCCGGTAATCCGTATTTGAC (site ATCTGTACTGT) | 0.00346 |
| ATCTCTACATGGACCGGTTTTCCCGGTAATCCGTATTTGAC (site ATCTTTACTGT) | 0 |
| ATCTGGACATGGACCGGTTTTCCCGGTAATCCGTATTTGCC (site ATCTGGACTGG) | 1.25 |
| ATCTGTGCATGGACCGGTTTTCCCGGTAATCCGTATTTGGC (site ATCTGTGCTGC) | 0 |
| ATCTTCCCATGGACCGGTTTTCCCGGTAATCCGTATTTGCA (site ATCTTCCCTTG) | 0.523 |
| ATCTTTACATGGACCGGTTTTCCCGGTAATCCGTATTTGAC (site ATCTATACTGT) | 0.832 |
| ATCTTTACATGGACCGGTTTTCCCGGTAATCCGTATTTGAC (site ATCTCTACTGT) | 0 |
| ATCTTTACATGGACCGGTTTTCCCGGTAATCCGTATTTGAC (site ATCTGTACTGT) | 0.247 |

| Sequence | recombinant UMI read abundance (log10) |
| --- | --- |
| ATCTTTACATGGACCGGTTTTCCCGGTAATCCGTATTTGAC (site ATCTTTACTGT) | 0.661 |
| ATGAACACATGGACCGGTTTTCCCGGTAATCCGTATTTGTG (site ATGAACACTCA) | 1.96 |
| ATGACATCATGGACCGGTTTTCCCGGTAATCCGTATTTGAT (site ATGACATCTAT) | 2.14 |
| ATGACGGCATGGACCGGTTTTCCCGGTAATCCGTATTTGAG (site ATGACGGCTCT) | 1.39 |
| ATGACTCCATGGACCGGTTTTCCCGGTAATCCGTATTTGGA (site ATGACTCCTTC) | 0.437 |
| ATGACTGCATGGACCGGTTTTCCCGGTAATCCGTATTTGCG (site ATGACTGCTCG) | 1.7 |
| ATGAGCGCATGGACCGGTTTTCCCGGTAATCCGTATTTGGG (site ATGAGCGCTCC) | 0.00562 |
| ATGAGGACATGGACCGGTTTTCCCGGTAATCCGTATTTGCT (site ATGAGGACTAG) | 2.89 |
| ATGATATCATGGACCGGTTTTCCCGGTAATCCGTATTTGCA (site ATGATATCTTG) | 2.39 |
| ATGATCTCATGGACCGGTTTTCCCGGTAATCCGTATTTGCG (site ATGATCTCTCG) | 3.11 |
| ATGCAAACATGGACCGGTTTTCCCGGTAATCCGTATTTGGA (site ATGCAAACTTC) | 1.69 |
| ATGCAGACATGGACCGGTTTTCCCGGTAATCCGTATTTGTT (site ATGCAGACTAA) | 1.92 |
| ATGCCATCATGGACCGGTTTTCCCGGTAATCCGTATTTGCA (site ATGCCATCTTG) | 1.98 |
| ATGCGTTCATGGACCGGTTTTCCCGGTAATCCGTATTTGGG (site ATGCGTTCTCC) | 1.05 |
| ATGGAAACATGGACCGGTTTTCCCGGTAATCCGTATTTGCG (site ATGGAAACTCG) | 2.39 |
| ATGGAGACATGGACCGGTTTTCCCGGTAATCCGTATTTGTA (site ATGGAGACTTA) | 2.41 |
| ATGGAGACATGGACCGGTTTTCCCGGTAATCCGTATTTGTG (site ATGGAGACTCA) | 1.96 |
| ATGGAGGCATGGACCGGTTTTCCCGGTAATCCGTATTTGGC (site ATGAAGGCTGC) | 2.07 |
| ATGGAGGCATGGACCGGTTTTCCCGGTAATCCGTATTTGGC (site ATGCAGGCTGC) | 1.03 |
| ATGGAGGCATGGACCGGTTTTCCCGGTAATCCGTATTTGGC (site ATGGAGGCTGC) | 2.53 |
| ATGGAGGCATGGACCGGTTTTCCCGGTAATCCGTATTTGGC (site ATGTAGGCTGC) | 1.48 |
| ATGGAGGCATGGACCGGTTTTCCCGGTAATCCGTATTTGTG (site ATGGAGGCTCA) | 1.11 |
| ATGGAGGCATGGACCGGTTTTCCCGGTAATCCGTATTTGTG (site CTGGAGGCTCA) | 0.764 |

| Sequence | recombinant UMI read abundance (log10) |
| --- | --- |
| ATGGAGGCATGGACCGGTTTTCCCGGTAATCCGTATTTGTG (site GTGGAGGCTCA) | 0.0176 |
| ATGGAGGCATGGACCGGTTTTCCCGGTAATCCGTATTTGTG (site TTGGAGGCTCA) | 0.765 |
| ATGGCTACATGGACCGGTTTTCCCGGTAATCCGTATTTGGG (site ATGGCTACTCC) | 0.356 |
| ATGTAAGCATGGACCGGTTTTCCCGGTAATCCGTATTTGGC (site ATGTAAGCTGC) | 3.24 |
| ATGTAAGCATGGACCGGTTTTCCCGGTAATCCGTATTTGGC (site ATGTACGCTGC) | 0.982 |
| ATGTAAGCATGGACCGGTTTTCCCGGTAATCCGTATTTGGC (site ATGTAGGCTGC) | 2.04 |
| ATGTAAGCATGGACCGGTTTTCCCGGTAATCCGTATTTGGC (site ATGTATGCTGC) | 0 |
| ATGTACGCATGGACCGGTTTTCCCGGTAATCCGTATTTGGT (site ATGTACGCTAC) | 1.42 |
| ATGTAGGCATGGACCGGTTTTCCCGGTAATCCGTATTTGCC (site ATGTAGGCTGA) | 1.76 |
| ATGTAGGCATGGACCGGTTTTCCCGGTAATCCGTATTTGCC (site ATGTAGGCTGC) | 0 |
| ATGTAGGCATGGACCGGTTTTCCCGGTAATCCGTATTTGCC (site ATGTAGGCTGG) | 2.21 |
| ATGTAGGCATGGACCGGTTTTCCCGGTAATCCGTATTTGCC (site ATGTAGGCTGT) | 1.7 |
| ATGTAGTCATGGACCGGTTTTCCCGGTAATCCGTATTTGGT (site ATGTAGTCTAC) | 2.81 |
| ATTAAGTCATGGACCGGTTTTCCCGGTAATCCGTATTTGTA (site ATTAAGTCTTA) | 2.58 |
| ATTAGAACATGGACCGGTTTTCCCGGTAATCCGTATTTGAG (site AATAGAACTCT) | 0.403 |
| ATTAGAACATGGACCGGTTTTCCCGGTAATCCGTATTTGAG (site ACTAGAACTCT) | 0.665 |
| ATTAGAACATGGACCGGTTTTCCCGGTAATCCGTATTTGAG (site AGTAGAACTCT) | 0.286 |
| ATTAGAACATGGACCGGTTTTCCCGGTAATCCGTATTTGAG (site ATTAGAACTCT) | 1.22 |
| ATTAGGCCATGGACCGGTTTTCCCGGTAATCCGTATTTGAC (site ATAAGGCCTGT) | 0 |
| ATTAGGCCATGGACCGGTTTTCCCGGTAATCCGTATTTGAC (site ATCAGGCCTGT) | 0.0148 |
| ATTAGGCCATGGACCGGTTTTCCCGGTAATCCGTATTTGAC (site ATGAGGCCTGT) | 0 |
| ATTAGGCCATGGACCGGTTTTCCCGGTAATCCGTATTTGAC (site ATTAGGCCTGT) | 0 |

From the supplement of paper PMC11208160
